Data as given in patent publication US9714236B2, “Compounds and methods for inhibiting JAK” (AstraZeneca AB, priority 2015, dated 2017).

What was measured:
Type in all cases: biochemical
[1] = molecular target: recombinant JAK2 (amino acids 831-1132) (Homo sapiens (Human), UniProt O60674); experiment: Enzyme inhibition studies, JAK2 (peptide phosphorylation, Caliper LC3000); conditions: ATP concentration of the tabulated values not stated (assayed at ATP Km 15 μM and at 5 mM)
Experimental: (§1) Enzyme inhibition studies were performed using recombinant JAK1 (amino acids 866-1154, Life Technologies, #PV4774, Carlsbad, Calif.), JAK2 (amino acids 831-1132), or JAK3 (amino acids 781-1124) under buffer conditions of 50 mM HEPES pH 7.3, 1 mM DTT, 0.01% Tween® 20, 50 μg/mL BSA, and 10 mM MgCl2. JAK enzyme was expressed as an N-terminal GST fusion in insect cells and purified by glutathione-affinity and size-exclusion chromatographies. […] Phosphorylated and unphosphorylated peptides were separated and quantified by a Caliper LC3000 system (Caliper Life Sciences, MA) for calculating percent inhibition.

[2] = molecular target: recombinant JAK3 (amino acids 781-1124) (Homo sapiens (Human), UniProt P52333); experiment: Enzyme inhibition studies, JAK3 (peptide phosphorylation, Caliper LC3000); conditions: ATP concentration of the tabulated values not stated (assayed at ATP Km 3 μM and at 5 mM)
Experimental: as §1

[3] = molecular target: recombinant JAK1 (amino acids 866-1154) (Homo sapiens (Human), UniProt P23458); experiment: Enzyme inhibition studies, JAK1 (peptide phosphorylation, Caliper LC3000); conditions: ATP concentration not given (assayed at ATP Km 55 μM and at 5 mM)
Experimental: as §1

Sequence of recombinant JAK2 (amino acids 831-1132) (O60674 831-1132): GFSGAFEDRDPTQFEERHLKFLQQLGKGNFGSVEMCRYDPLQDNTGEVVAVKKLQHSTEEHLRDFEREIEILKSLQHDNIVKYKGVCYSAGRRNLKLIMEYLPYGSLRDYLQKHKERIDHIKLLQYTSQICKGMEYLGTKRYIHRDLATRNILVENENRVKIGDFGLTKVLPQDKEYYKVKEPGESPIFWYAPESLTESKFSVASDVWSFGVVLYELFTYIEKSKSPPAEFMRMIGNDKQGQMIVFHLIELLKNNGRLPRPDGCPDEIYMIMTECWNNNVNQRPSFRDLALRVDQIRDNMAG
Sequence of recombinant JAK1 (amino acids 866-1154) (P23458 866-1154): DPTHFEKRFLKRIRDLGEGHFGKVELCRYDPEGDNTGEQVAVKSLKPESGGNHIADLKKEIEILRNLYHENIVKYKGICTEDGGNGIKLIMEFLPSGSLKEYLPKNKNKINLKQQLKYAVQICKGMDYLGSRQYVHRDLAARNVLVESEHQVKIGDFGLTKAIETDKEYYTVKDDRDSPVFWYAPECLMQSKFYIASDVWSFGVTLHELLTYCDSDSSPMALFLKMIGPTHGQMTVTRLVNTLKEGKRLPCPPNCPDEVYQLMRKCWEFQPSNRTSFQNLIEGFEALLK
Sequence of recombinant JAK3 (amino acids 781-1124) (P52333 781-1124): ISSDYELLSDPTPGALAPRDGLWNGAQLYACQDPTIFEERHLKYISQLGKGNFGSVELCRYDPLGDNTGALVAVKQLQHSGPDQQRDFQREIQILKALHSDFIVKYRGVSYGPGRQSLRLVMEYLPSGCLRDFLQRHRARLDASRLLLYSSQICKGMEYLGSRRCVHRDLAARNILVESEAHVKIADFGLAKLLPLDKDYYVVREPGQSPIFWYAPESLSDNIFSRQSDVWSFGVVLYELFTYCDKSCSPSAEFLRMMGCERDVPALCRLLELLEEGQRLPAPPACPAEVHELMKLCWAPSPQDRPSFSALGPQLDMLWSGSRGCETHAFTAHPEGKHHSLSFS

Row | Structure (SMILES) | IC50 [1] [nM] | IC50 [2] [nM] | IC50 [3] [nM]
1 | CCOc1nn(C)cc1Nc1ncc(F)c(-c2c[nH]c3c(NC(=O)[C@H](C)N4CCN(C)[C@@H](C)C4)cccc23)n1 [Example 11b, (2S)-2-[(3S)-3,4-dimethylpiperazin-1-yl]-N-(3-{2-[(3-ethoxy-1-methyl-1H-pyrazol-4-yl)amino]-5-fluoropyrimidin-4-yl}-1H-indol-7-yl)propanamide] | > 30000 | > 30000 | 1850
2 | COC[C@H](C(=O)Nc1cccc2c(-c3ccnc(Nc4cn(C)nc4OC)n3)c[nH]c12)N1CCN(C)CC1 [Example 60, (2R)-3-Methoxy-N-(3-{2-[(3-methoxy-1-methyl-1H-pyrazol-4-yl)amino]pyrimidin-4-yl}-1H-indol-7-yl)-2-(4-methylpiperazin-1-yl)propanamide] | 1530 | > 30000 | 4
3 | CCOc1nn(C)cc1Nc1ncc(F)c(-c2c[nH]c3c(NC(=O)[C@@H](C)N4CCN(C)[C@@H](C)C4)cccc23)n1 [Example 11a, (2R)-2-[(3S)-3,4-dimethylpiperazin-1-yl]-N-(3-{2-[(3-ethoxy-1-methyl-1H-pyrazol-4-yl)amino]-5-fluoropyrimidin-4-yl}-1H-indol-7-yl)propanamide] | > 30000 | > 30000 | 40
4 | COc1nn(C)cc1Nc1ncc(C)c(-c2c[nH]c3c(NC(=O)[C@@H](C)N4CCN(C)C[C@H]4C)cccc23)n1 [Example 38, (2R)-2-[(2R)-2,4-dimethylpiperazin-1-yl]-N-(3-{2-[(3-methoxy-1-methyl-1H-pyrazol-4-yl)amino]-5-methylpyrimidin-4-yl}-1H-indol-7-yl)propanamide] | 6480 | > 30000 | 13
5 | COCCN1CCN([C@H](C)C(=O)Nc2cccc3c(-c4ccnc(Nc5cn(C)nc5OC)n4)c[nH]c23)CC1 [Example 27, (2R)-2-[4-(2-methoxyethyl)piperazin-1-yl]-N-(3-{2-[(3-methoxy-1-methyl-1H-pyrazol-4-yl)amino]pyrimidin-4-yl}-1H-indol-7-yl)propanamide] | > 30000 | > 30000 | 575
6 | COc1nn(C)cc1Nc1nccc(-c2c[nH]c3c(NC(=O)[C@@H](C)N4CCN(C)[C@@H](C)C4)cccc23)n1 [Example 26, (2R)-2-[(3S)-3,4-dimethylpiperazin-1-yl]-N-(3-{2-[(3-methoxy-1-methyl-1H-pyrazol-4-yl)amino]pyrimidin-4-yl}-1H-indol-7-yl)propanamide] | 16700 | > 30000 | 69
7 | CCOc1nn(C)cc1Nc1ncc(C)c(-c2c[nH]c3c(NC(=O)[C@@H](C)N4CCN(CCOC)CC4)cccc23)n1 [Example 21, (2R)-N-(3-{2-[(3-ethoxy-1-methyl-1H-pyrazol-4-yl)amino]-5-methylpyrimidin-4-yl}-1H-indol-7-yl)-2-[4-(2-methoxyethyl)piperazin-1-yl]propanamide] | > 30000 | > 30000 | 184
8 | COc1nn(C)cc1Nc1ncc(C)c(-c2c[nH]c3c(NC(=O)[C@@H](C)N4CCN(CCO)CC4)cccc23)n1 [Example 15, (2R)-2-[4-(2-hydroxyethyl)piperazin-1-yl]-N-(3-{2-[(3-methoxy-1-methyl-1H-pyrazol-4-yl)amino]-5-methylpyrimidin-4-yl}-1H-indol-7-yl)propanamide] | 2530 | > 30000 | 7
9 | COc1nn(C)cc1Nc1ncc(C)c(-c2c[nH]c3c(NC(=O)[C@@H](C)N4CCN(C)C[C@@H]4C)cccc23)n1 [Example 19, (2R)-2-[(2S)-2,4-dimethylpiperazin-1-yl]-N-(3-{2-[(3-methoxy-1-methyl-1H-pyrazol-4-yl)amino]-5-methylpyrimidin-4-yl}-1H-indol-7-yl)propanamide] | > 30000 | > 30000 | 296
10 | COCCN1CCN([C@H](C)C(=O)Nc2cccc3c(-c4nc(Nc5cn(C)nc5OC)ncc4C)c[nH]c23)CC1 [Example 17, (2R)-2-[4-(2-methoxyethyl)piperazin-1-yl]-N-(3-{2-[(3-methoxy-1-methyl-1H-pyrazol-4-yl)amino]-5-methylpyrimidin-4-yl}-1H-indol-7-yl)propanamide] | 18100 | > 30000 | 107
11 | COc1nn(C)cc1Nc1ncc(F)c(-c2c[nH]c3c(NC(=O)[C@H](C)N4CCN(C)C[C@@H]4C)cccc23)n1 [Example 7b, (2S)-2-[(2S)-2,4-dimethylpiperazin-1-yl]-N-(3-{5-fluoro-2-[(3-methoxy-1-methyl-1H-pyrazol-4-yl)amino]pyrimidin-4-yl}-1H-indol-7-yl)propanamide] | > 30000 | > 30000 | 3600
12 | CCOc1nn(C)cc1Nc1ncc(C)c(-c2c[nH]c3c(NC(=O)[C@@H](C)N4CCN(C)[C@H](C)C4)cccc23)n1 [Example 24, (2R)-2-[(3R)-3,4-dimethylpiperazin-1-yl]-N-(3-{2-[(3-ethoxy-1-methyl-1H-pyrazol-4-yl)amino]-5-methylpyrimidin-4-yl}-1H-indol-7-yl)propanamide] | > 30000 | > 30000 | 113
13 | CCOc1nn(C)cc1Nc1ncc(F)c(-c2c[nH]c3c(NC(=O)[C@@H](C)N4CCN(C)[C@H](C)C4)cccc23)n1 [Example 13, (2R)-2-[(3R)-3,4-dimethylpiperazin-1-yl]-N-(3-{2-[(3-ethoxy-1-methyl-1H-pyrazol-4-yl)amino]-5-fluoropyrimidin-4-yl}-1H-indol-7-yl)propanamide] | > 30000 | > 30000 | 166
14 | CCOc1nn(CC)cc1Nc1ncc(C)c(-c2c[nH]c3c(NC(=O)[C@@H](C)N4CCN(C)CC4)cccc23)n1 [Example 59, (2R)-N-(3-{2-[(3-ethoxy-1-ethyl-1H-pyrazol-4-yl)amino]-5-methylpyrimidin-4-yl}-1H-indol-7-yl)-2-(4-methylpiperazin-1-yl)propanamide] | > 30000 | > 30000 | 69

Further lines, results first:

Row | IC50 [1] [nM] | IC50 [2] [nM] | IC50 [3] [nM] | Structure (SMILES)
15 | 21100 | > 30000 | 79 | CC[C@@H](C(=O)Nc1cccc2c(-c3nc(Nc4cn(C)nc4OC)ncc3C)c[nH]c12)N1CCN(C)CC1 [Example 43, (2S)-N-(3-{2-[(3-Methoxy-1-methyl-1H-pyrazol-4-yl)amino]-5-methylpyrimidin-4-yl}-1H-indol-7-yl)-2-(4-methylpiperazin-1-yl)butanamide]
16 | > 30000 | > 30000 | 272 | COc1nn(C)cc1Nc1ncc(C)c(-c2c[nH]c3c(NC(=O)[C@H](C)N4CCN(C)CC4)cccc23)n1 [Example 33, (2S)-N-(3-{2-[(3-methoxy-1-methyl-1H-pyrazol-4-yl)amino]-5-methylpyrimidin-4-yl}-1H-indol-7-yl)-2-(4-methylpiperazin-1-yl)propanamide]
17 | > 30000 | > 30000 | 986 | COC[C@@H](C(=O)Nc1cccc2c(-c3nc(Nc4cn(C)nc4OC)ncc3C)c[nH]c12)N1CCN(C)CC1 [Example 46, (2S)-3-methoxy-N-(3-{2-[(3-methoxy-1-methyl-1H-pyrazol-4-yl)amino]-5-methylpyrimidin-4-yl}-1H-indol-7-yl)-2-(4-methylpiperazin-1-yl)propanamide]
18 | 1770 | > 30000 | < 4 | CC[C@H](C(=O)Nc1cccc2c(-c3nc(Nc4cn(C)nc4C)ncc3F)c[nH]c12)N1CCN(C)CC1 [Example 49, (2R)-N-(3-{2-[(1,3-dimethyl-1H-pyrazol-4-yl)amino]-5-fluoropyrimidin-4-yl}-1H-indol-7-yl)-2-(4-methylpiperazin-1-yl)butanamide]
19 | 17000 | > 30000 | 20 | CCOc1nn(C)cc1Nc1ncc(C)c(-c2c[nH]c3c(NC(=O)[C@@H](C)N4CCN(C)CC4)cccc23)n1 [Example 35, (2R)-N-(3-{2-[(3-ethoxy-1-methyl-1H-pyrazol-4-yl)amino]-5-methylpyrimidin-4-yl}-1H-indol-7-yl)-2-(4-methylpiperazin-1-yl)propanamide]
20 | > 30000 | > 30000 | 1210 | CC[C@@H](C(=O)Nc1cccc2c(-c3ccnc(Nc4cn(C)nc4OC)n3)c[nH]c12)N1CCN(C)CC1 [Example 48, (2S)-N-(3-{2-[(3-Methoxy-1-methyl-1H-pyrazol-4-yl)amino]pyrimidin-4-yl}-1H-indol-7-yl)-2-(4-methylpiperazin-1-yl)butanamide]
21 | 1580 | 15400 | 8 | COc1nn(C)cc1Nc1ncc(Br)c(-c2c[nH]c3c(NC(=O)[C@@H](C)N4CCN(C)CC4)cccc23)n1 [Example 37, (2R)-N-(3-{5-bromo-2-[(3-methoxy-1-methyl-1H-pyrazol-4-yl)amino]pyrimidin-4-yl}-1H-indol-7-yl)-2-(4-methylpiperazin-1-yl)propanamide]
22 | > 30000 | > 30000 | 192 | CCOc1nn(C)cc1Nc1ncc(C)c(-c2c[nH]c3c(NC(=O)[C@H](CC)N4CCN(C)CC4)cccc23)n1 [Example 63, (2S)-N-(3-{2-[(3-ethoxy-1-methyl-1H-pyrazol-4-yl)amino]-5-methylpyrimidin-4-yl}-1H-indol-7-yl)-2-(4-methylpiperazin-1-yl)butanamide]
